Experimental data from ChEMBL document CHEMBL3272146, “Tetramethoxydibenzoquinolizinium salts. Preparation and antileukemic activity of some positional and structural isomers of coralyne” (1976).
Activity calls are given as the source filed them. The rule behind the calls is not given here.

Key:
[1] = test system: P388; test: In-vivo antileukemic activity against mouse P388 cells assessed as host survival at 20 mg/kg qd relative to control; format: functional
[2] = test system: P388; test: In-vivo antileukemic activity against mouse P388 cells assessed as host survival at 10 mg/kg qd relative to control; format: functional
[3] = test system: P388; test: In-vivo antileukemic activity against mouse P388 cells assessed as host survival at 8 mg/kg qd relative to control; format: functional
[4] = test system: P388; test: In-vivo antileukemic activity against mouse P388 cells assessed as host survival at 5 mg/kg qd relative to control; format: functional
[5] = test system: P388; test: In-vivo antileukemic activity against mouse P388 cells assessed as host survival at 100 mg/kg qd; format: functional, organism-based; parameters: dose 100 mg/kg
[6] = test system: P388; test: In-vivo antileukemic activity against mouse P388 cells assessed as host survival at 64 mg/kg qd; format: functional, organism-based; parameters: dose 64 mg/kg
[7] = test system: P388; test: In-vivo antileukemic activity against mouse P388 cells assessed as host survival at 50 mg/kg qd; format: functional, organism-based; parameters: dose 50 mg/kg
[8] = test system: P388; test: In-vivo antileukemic activity against mouse P388 cells assessed as host survival at 5 mg/kg qd; format: functional, organism-based; parameters: dose 5 mg/kg
[9] = test system: P388; test: In-vivo antileukemic activity against mouse P388 cells assessed as host survival at 160 mg/kg qd relative to control; format: functional
[10] = test system: P388; test: In-vivo antileukemic activity against mouse P388 cells assessed as host survival at 128 mg/kg qd relative to control; format: functional
[11] = test system: P388; test: In-vivo antileukemic activity against mouse P388 cells assessed as host survival at 100 mg/kg qd relative to control; format: functional
[12] = test system: P388; test: In-vivo antileukemic activity against mouse P388 cells assessed as host survival at 80 mg/kg qd relative to control; format: functional
[13] = test system: P388; test: In-vivo antileukemic activity against mouse P388 cells assessed as host survival at 75 mg/kg qd relative to control; format: functional
[14] = test system: P388; test: In-vivo antileukemic activity against mouse P388 cells assessed as host survival at 64 mg/kg qd relative to control; format: functional
[15] = test system: P388; test: In-vivo antileukemic activity against mouse P388 cells assessed as host survival at 50 mg/kg qd relative to control; format: functional
[16] = test system: P388; test: In-vivo antileukemic activity against mouse P388 cells assessed as host survival at 40 mg/kg qd relative to control; format: functional
[17] = test system: P388; test: In-vivo antileukemic activity against mouse P388 cells assessed as host survival at 32 mg/kg qd relative to control; format: functional
[18] = test system: P388; test: In-vivo antileukemic activity against mouse P388 cells assessed as host survival at 120 mg/kg qd relative to control; format: functional
[19] = test system: P388; test: In-vivo antileukemic activity against mouse P388 cells assessed as host survival at 25 mg/kg qd relative to control; format: functional
[20] = test system: P388; test: In-vivo antileukemic activity against mouse P388 cells assessed as host survival at 120 mg/kg qd; format: functional, organism-based; parameters: dose 120 mg/kg
[21] = test system: P388; test: In-vivo antileukemic activity against mouse P388 cells assessed as host survival at 80 mg/kg qd; format: functional, organism-based; parameters: dose 80 mg/kg
[22] = test system: P388; test: In-vivo antileukemic activity against mouse P388 cells assessed as host survival at 25 mg/kg qd; format: functional, organism-based; parameters: dose 25 mg/kg
[23] = test system: P388; test: In-vivo antileukemic activity against mouse P388 cells assessed as host survival at 20 mg/kg qd; format: functional, organism-based; parameters: dose 20 mg/kg
[24] = test system: P388; test: In-vivo antileukemic activity against mouse P388 cells assessed as host survival at 10 mg/kg qd; format: functional, organism-based; parameters: dose 10 mg/kg
[25] = test system: P388; test: In-vivo antileukemic activity against mouse P388 cells assessed as host survival at 400 mg/kg qd relative to control; format: functional
[26] = test system: P388; test: In-vivo antileukemic activity against mouse P388 cells assessed as host survival at 200 mg/kg qd relative to control; format: functional
[27] = test system: P388; test: In-vivo antileukemic activity against mouse P388 cells assessed as host survival at 200 mg/kg qd; format: functional, organism-based; parameters: dose 200 mg/kg
[28] = test system: P388; test: In-vivo antileukemic activity against mouse P388 cells assessed as host survival at 160 mg/kg qd; format: functional, organism-based; parameters: dose 160 mg/kg
[29] = test system: P388; test: In-vivo antileukemic activity against mouse P388 cells assessed as host survival at 40 mg/kg qd; format: functional, organism-based; parameters: dose 40 mg/kg
[30] = test system: P388; test: In-vivo antileukemic activity against mouse P388 cells assessed as host survival at 168 mg/kg qd; format: functional, organism-based; parameters: dose 168 mg/kg

Question: With `CC(=O)OS(=O)(=O)[O-].COc1cc2cc3c4cc(OC)c(OC)cc4cc[n+]3c(C)c2cc1OC` as the compound, how does the T/C [1] read?
Answer: Its T/C is 173.

Question: And the T/C [2]?
Answer: Its T/C is 159.

Question: What about the T/C [3] of the same compound?
Answer: The T/C was 150.

Question: What about the T/C [4] of the same compound?
Answer: Its T/C is 157.

Question: And the Activity [5]?
Answer: The Activity was “Active”.

Question: And the Activity [6]?
Answer: The Activity was “Active”.

Question: And the Activity [7]?
Answer: Its Activity is “Active”.

Question: And the Activity [8]?
Answer: Its Activity is “Active”.

Question: What about the T/C [9] of the same compound?
Answer: Its T/C is 170.

Question: And the T/C [10]?
Answer: Its T/C is 167.

Question: And the T/C [11]?
Answer: Its T/C is 176.

Question: What about the T/C [12] of the same compound?
Answer: Its T/C is 175.

Question: What about the T/C [13] of the same compound?
Answer: The T/C was 175.

Question: What about the T/C [14] of the same compound?
Answer: Its T/C is 182.

Question: What about the T/C [15] of the same compound?
Answer: The T/C was 180.

Question: And the T/C [16]?
Answer: Its T/C is 173.

Question: What about the T/C [17] of the same compound?
Answer: Its T/C is 175.

Question: For `CC(=O)OS(=O)(=O)[O-].COc1cc2c[n+](C)c3c4ccc(OC)c(OC)c4ccc3c2cc1OC`, which T/C [1] is on record?
Answer: Its T/C is 154.

Question: And the T/C [2]?
Answer: Its T/C is 149.

Question: And the T/C [18]?
Answer: Its T/C is 179.

Question: And the T/C [19]?
Answer: The T/C was 164.

Question: What about the Activity [5] of the same compound?
Answer: Its Activity is “Active”.

Question: What about the Activity [7] of the same compound?
Answer: Its Activity is “Active”.

Question: And the Activity [20]?
Answer: The Activity was “Active”.

Question: And the Activity [21]?
Answer: Its Activity is “Active”.

Question: What about the Activity [22] of the same compound?
Answer: The Activity was “Active”.

Question: And the Activity [23]?
Answer: The Activity was “Active”.

Question: And the Activity [24]?
Answer: The Activity was “Active”.

Question: What about the T/C [11] of the same compound?
Answer: The T/C was 209.

Question: What about the T/C [12] of the same compound?
Answer: The T/C was 170.

Question: What about the T/C [15] of the same compound?
Answer: Its T/C is 174.

Question: And the T/C [16]?
Answer: Its T/C is 153.

Question: Which results are given for `COc1cc2cc3c4cc(OC)c(OC)cc4cc(C)[n+]3cc2cc1OC.[Cl-]`?
Answer: T/C [19]: 139; T/C [25]: 131; T/C [26]: 139; Activity [5]: Active; Activity [7]: Active; Activity [22]: Active; Activity [27]: Active; T/C [11]: 134; T/C [15]: 134

Question: Which results are given for `CC(=O)OS(=O)(=O)[O-].COc1cc2cc3cc4cc(OC)c(OC)cc4c(C)[n+]3cc2cc1OC`?
Answer: T/C [1]: 180; T/C [2]: 145; T/C [4]: 140; T/C [18]: 150; Activity [8]: Active; Activity [20]: Active; Activity [21]: Active; Activity [23]: Active; Activity [24]: Active; Activity [28]: Active; Activity [29]: Active; T/C [9]: 200; T/C [12]: 180; T/C [16]: 150

Question: Which T/C [1] does the source give for `CC(=O)OS(=O)(=O)[O-].COc1cc2cc[n+]3c(C)c4ccc(OC)c(OC)c4cc3c2cc1OC` here?
Answer: Its T/C is 171.

Question: What about the T/C [2] of the same compound?
Answer: The T/C was 136.

Question: What about the T/C [4] of the same compound?
Answer: Its T/C is 127.

Question: What about the Activity [8] of the same compound?
Answer: Its Activity is “Active”.

Question: And the Activity [23]?
Answer: Its Activity is “Active”.

Question: And the Activity [24]?
Answer: The Activity was “Active”.

Question: And the Activity [30]?
Answer: The Activity was “inactive”.

Question: And the T/C [16]?
Answer: The T/C was 177.
